pIC50: −log10 of the molar value. Calls of active or inactive are those of the source. The calls are words filed in the database; no cut-off is given here.
Key:
PC-3 [1] = experiment: Upregulation of p21 level in human PC-3 cells at 10 uM incubated upto 48 hrs by Western blot analysis; type: functional, cell-based
PC-3 [2] = experiment: Induction of cell cycle arrest in human PC-3 cells assessed as accumulation of cells at G1 phase at 10 uM incubated for 6 hrs by flow cytometry (reference value: 56.81 %); type: functional
[3] = Metabolic stability in human liver S9 fraction assessed as half life at 20 umol/L preincubated for 5 mins followed by NADPH addition measured upto 60 mins by LC-MS/MS analysis; type: ADME, subcellular; settings: dose 20 µmol/L, time < 65 min
[4] = MRTlast in tumor of NOD-SCID mouse model xenografted with human PC-3 cells at 25 mg/kg, IG measured upto 48 hrs by LC-MS/MS analysis; type: ADME, organism-based, Neoplasm; settings: po
MGC-803 [5] = experiment: Antitumor activity against human MGC-803 cells xenografted in NOD-SCID mouse model assessed as downregulation of ki67 level at 10 to 50 mg/kg, IG administered once every 2 days for 21 days by Western blot analysis; type: functional, organism-based; settings: dose 10-50 mg/kg, time 21.0 day
PC-3 [6] = experiment: Induction of cell cycle arrest in human PC-3 cells assessed as accumulation of cells at G1 phase at 5 uM incubated for 48 hrs by flow cytometry (reference value: 57.39 %); type: functional
[7] = Metabolic stability in rat liver microsome assessed as half life at 20 umol/L preincubated for 5 mins followed by NADPH addition measured upto 60 mins by LC-MS/MS analysis; type: ADME; settings: liver microsomes, dose 20 µmol/L, time < 65 min
[8] = Toxicity in NOD-SCID mouse model xenografted with human PC-3 cells assessed as change in spleen histology at 10 to 50 mg/kg, IG administered once every 2 days for 21 days by H and E staining based analysis; type: organism-based; settings: in vivo, po, 504 h, dose 10-50 mg/kg, time 21 day
MGC-803 [9] = experiment: Antitumor activity against human MGC-803 cells xenografted in NOD-SCID mouse model assessed as tumor growth inhibition at 10 to 50 mg/kg, IG administered once every 2 days for 21 days; type: functional, organism-based; settings: dose 10-50 mg/kg, time 21.0 day
MGC-803 [10] = experiment: Induction of cell cycle arrest in human MGC-803 cells assessed as accumulation of cells at S phase at 10 uM incubated for 12 hrs by flow cytometry (reference value: 20.41 %); type: functional
MGC-803 [11] = experiment: Induction of apoptosis in human MGC-803 cells assessed as late apoptotic cells at 10 uM incubated for 48 hrs by annexin V-FITC/PI staining based flow cytometry (reference value: 0.95 %); type: functional
[12] = Toxicity in mouse assessed as decrease in total protein level at 10 to 50 mg/kg; type: organism-based; settings: in vivo, dose 10-50 mg/kg
PC-3 [13] = experiment: Induction of cell cycle arrest in human PC-3 cells assessed as accumulation of cells at G2 phase at 10 uM incubated for 48 hrs by flow cytometry (reference value: 19.34 %); type: functional
NCI-N87 = experiment: Antitumor activity against human NCI-N87 cells with low Skp2 expression assessed as cell growth inhibition incubated for 72 hrs by MTT assay; type: functional, cell-based; settings: NCI-N87, 72 h
[14] = Metabolic stability in rat liver S9 fraction assessed as half life at 20 umol/L preincubated for 5 mins followed by NADPH addition measured upto 60 mins by LC-MS/MS analysis; type: ADME, subcellular; settings: dose 20 µmol/L, time < 65 min
MGC-803 [15] = experiment: Antitumor activity against human MGC-803 cells assessed as cell growth inhibition incubated for 72 hrs by MTT assay; type: functional, cell-based; settings: MGC-803, 72 h
PC-3 [16] = experiment: Induction of apoptosis in human PC-3 cells assessed as early apoptotic cells at 5 uM incubated for 48 hrs by annexin V-FITC/PI staining based flow cytometry (reference value: 0.85 %); type: functional
MGC-803 [17] = experiment: Induction of cell cycle arrest in human MGC-803 cells assessed as accumulation of cells at G2 phase at 5 uM incubated for 48 hrs by flow cytometry (reference value: 21.35 %); type: functional
MGC-803 [18] = experiment: Induction of cell cycle arrest in human MGC-803 cells assessed as accumulation of cells at S phase at 10 uM incubated for 36 hrs by flow cytometry (reference value: 20.41 %); type: functional
PC-3 [19] = experiment: Induction of apoptosis in human PC-3 cells assessed as cell shrinkage incubated for 48 hrs; type: functional, cell-based; settings: dose <= 10.0 µM
MGC-803 [20] = experiment: Induction of apoptosis in human MGC-803 cells assessed as early apoptotic cells at 2.5 uM incubated for 48 hrs by annexin V-FITC/PI staining based flow cytometry (reference value: 0.21 %); type: functional
MGC-803 [21] = experiment: Induction of cell cycle arrest in human MGC-803 cells assessed as accumulation of cells at G1 phase at 10 uM incubated for 12 hrs by flow cytometry (reference value: 57.09 %); type: functional
PC-3 [22] = experiment: Induction of apoptosis in human PC-3 cells assessed as nuclear fragmentation incubated for 48 hrs; type: functional, cell-based; settings: dose <= 10.0 µM
[23] = AUClast in plasma of NOD-SCID mouse model xenografted with human PC-3 cells at 25 mg/kg, IG measured upto 48 hrs by LC-MS/MS analysis; type: ADME, organism-based; design: dose 25 mg/kg, time < 48 hrs, route ig; settings: po
[24] = Toxicity in NOD-SCID mouse model xenografted with human MGC-803 cells assessed as change in heart histology at 10 to 50 mg/kg, IG administered once every 2 days for 21 days by H and E staining based analysis; type: organism-based; settings: in vivo, po, 504 h, dose 10-50 mg/kg, time 21 day
MGC-803 [25] = experiment: Induction of cell cycle arrest in human MGC-803 cells assessed as accumulation of cells at S phase at 5 uM incubated for 48 hrs by flow cytometry (reference value: 22.72 %); type: functional
PC-3 [26] = experiment: Antitumor activity against human PC-3 cells xenografted in NOD-SCID mouse model assessed as increase in apoptosis in tumor tissue at 10 to 50 mg/kg, IG administered once every 2 days for 21 days by TUNEL staining based analysis; type: functional, organism-based; settings: dose 10-50 mg/kg, time 21.0 day
A2780 = experiment: Antitumor activity against human A2780 cells with low Skp2 expression assessed as cell growth inhibition incubated for 72 hrs by MTT assay; type: functional, cell-based; settings: A2780, 72 h
MGC-803 [27] = experiment: Induction of cell cycle arrest in human MGC-803 cells assessed as accumulation of cells at G1 phase at 10 uM incubated for 36 hrs by flow cytometry (reference value: 57.09 %); type: functional
MGC-803 [28] = experiment: Induction of cell cycle arrest in human MGC-803 cells assessed as accumulation of cells at S phase at 10 uM incubated for 48 hrs by flow cytometry (reference value: 20.41 %); type: functional
[29] = Cmax in tumor of NOD-SCID mouse model xenografted with human PC-3 cells at 25 mg/kg, IG measured upto 48 hrs by LC-MS/MS analysis; type: ADME, organism-based, Neoplasm; design: time < 48 hrs, dose 25 mg/kg, route ig; settings: po
PC-3 [30] = experiment: Inhibition of cell migration in human PC-3 cells by transwell invasion assay; type: functional, cell-based; settings: dose <= 2.0 µM
PC-3 [31] = experiment: Antitumor activity against human PC-3 cells xenografted in NOD-SCID mouse model assessed as tumor suppression at 50 mg/kg, IG administered once every 2 days for 21 days relative to control; type: functional; settings: time 21 day
MCF7 = experiment: Antitumor activity against human MCF7 cells assessed as cell growth inhibition incubated for 72 hrs by MTT assay; type: functional, cell-based; settings: MCF7, 72 h
MGC-803 [32] = experiment: Induction of cell cycle arrest in human MGC-803 cells assessed as accumulation of cells at G1 phase at 2.5 uM incubated for 48 hrs by flow cytometry (reference value: 54.46 %); type: functional

- half-life at 20 µM [3]: 64.8 min
- MRT last at 48 h [4]: 9.9 h
- half-life at 20 µM [7]: 16.3 min
- half-life at 20 µM [14]: 15.4 min
- pIC50 (MGC-803 [15]): 5.15
- AUC(0-t) at 48 h [23]: 3230 ng·h/mL
- pIC50 (A2780): 4.84
- Cmax [29]: 182 ng/g
- pIC50 (MCF7): 5.36
SMILES: O=C(CCl)NC1CCN(c2cnc(-c3ccccc3)c(-c3ccccc3)n2)CC1
- Activity (PC-3 [1]): Active
- Activity (PC-3 [2]): 46.91%
- Activity (MGC-803 [5]): Active
- Activity (PC-3 [6]): 44.65%
- Activity [8]: Non-Toxic
- TGI (MGC-803 [9]): Active
- Activity (MGC-803 [10]): 31.88%
- Activity (MGC-803 [11]): 24.9%
- Activity [12]: Toxic
- Activity (PC-3 [13]): 16.14%
- pIC50 (NCI-N87): 4.81
- Activity (PC-3 [16]): 0.33%
- Activity (MGC-803 [17]): 18.74%
- Activity (MGC-803 [18]): 42.29%
- Activity (PC-3 [19]): Dose-Dependent Effect
- Activity (MGC-803 [20]): 2.85%
- Activity (MGC-803 [21]): 46.55%
- Activity (PC-3 [22]): Dose-Dependent Effect
- Activity [24]: Non-Toxic
- Activity (MGC-803 [25]): 35.78%
- Activity (PC-3 [26]): Active
- Activity (MGC-803 [27]): 35.48%
- Activity (MGC-803 [28]): 38.76%
- inhibition (PC-3 [30]): Dose-Dependent Effect
- Activity (PC-3 [31]): 100%
- Activity (MGC-803 [32]): 49.77%

From ChEMBL document CHEMBL5338791, “Discovery of Novel 1,3-Diphenylpyrazine Derivatives as Potent S-Phase Kinase-Associated Protein 2 (Skp2) Inhibitors for the Treatment of Cancer” (J Med Chem, 2023)
